In patent US20250313548A1 (Actio Biosciences, Inc., priority 2023, published 2025):

Target: human, KCNT1 (Homo sapiens (Human), UniProt Q5JUK3)
Assay: FLIPR Tl/K Flux Assay
Assay type: cell-based
Details: HEK293 cells stably expressing human KCNT1; Tl+ flux stimulated with EC80 of agonist Loxapine
Procedure, shortened: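 Inhibition values come from a Hill-equation fit of % inhibition versus log concentration, using normalized fluorescence (Fmax/Fmin) over a 160 s read. The read followed stimulation with Tl+ plus EC80 agonist loxapine after 30 min compound pre-incubation at 25 °C. Cells were KCNT1-expressing HEK293, dye-loaded 1 h in pH 7.4 HEPES/HBSS with 5 mM probenecid.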

Chain of human, KCNT1 (Q5JUK3 whole entry): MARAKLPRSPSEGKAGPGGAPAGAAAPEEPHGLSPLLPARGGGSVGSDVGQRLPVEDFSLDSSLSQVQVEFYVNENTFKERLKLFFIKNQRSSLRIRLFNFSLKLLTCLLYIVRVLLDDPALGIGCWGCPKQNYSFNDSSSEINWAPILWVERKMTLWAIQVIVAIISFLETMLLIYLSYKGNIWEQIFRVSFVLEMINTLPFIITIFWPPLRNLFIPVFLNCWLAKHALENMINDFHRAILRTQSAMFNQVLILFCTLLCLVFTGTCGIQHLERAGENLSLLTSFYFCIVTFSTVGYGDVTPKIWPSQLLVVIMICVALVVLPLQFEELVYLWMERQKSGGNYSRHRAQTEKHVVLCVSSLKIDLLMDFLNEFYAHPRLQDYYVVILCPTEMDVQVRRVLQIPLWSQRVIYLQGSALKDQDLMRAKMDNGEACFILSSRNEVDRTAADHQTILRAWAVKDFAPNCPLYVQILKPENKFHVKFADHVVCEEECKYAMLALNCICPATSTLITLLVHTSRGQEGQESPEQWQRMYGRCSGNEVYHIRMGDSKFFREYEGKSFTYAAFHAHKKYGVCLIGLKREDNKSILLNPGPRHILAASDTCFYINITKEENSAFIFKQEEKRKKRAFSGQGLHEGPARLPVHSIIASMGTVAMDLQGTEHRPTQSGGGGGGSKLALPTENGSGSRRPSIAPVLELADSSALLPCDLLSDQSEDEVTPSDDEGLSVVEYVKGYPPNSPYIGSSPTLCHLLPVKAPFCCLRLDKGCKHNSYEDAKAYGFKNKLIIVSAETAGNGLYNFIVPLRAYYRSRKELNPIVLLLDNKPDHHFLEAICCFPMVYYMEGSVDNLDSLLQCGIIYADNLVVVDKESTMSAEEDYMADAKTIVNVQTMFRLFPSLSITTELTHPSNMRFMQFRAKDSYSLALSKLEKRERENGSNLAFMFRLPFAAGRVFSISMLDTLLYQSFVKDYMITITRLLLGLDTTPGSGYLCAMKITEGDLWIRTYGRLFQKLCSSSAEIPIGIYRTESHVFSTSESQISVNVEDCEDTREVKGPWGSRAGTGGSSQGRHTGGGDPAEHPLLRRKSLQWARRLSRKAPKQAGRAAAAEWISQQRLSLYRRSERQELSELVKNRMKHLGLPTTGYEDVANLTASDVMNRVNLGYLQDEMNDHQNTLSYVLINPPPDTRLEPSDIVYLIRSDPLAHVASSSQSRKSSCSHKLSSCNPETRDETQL

| IC50 [nM] | Compound |
| --- | --- |
| < 250 | O=C(N[C@H]1CCc2nn(-c3ccnc(C(F)(F)F)c3)cc21)c1cnn(C(F)(F)F)c1 [Compound I-566a, (S)-1-(Trifluoromethyl)-N-(2-(2-(trifluoromethyl)pyridin-4-yl)-2,4,5,6-tetrahydrocyclopenta[c]pyrazol-4-yl)-1H-pyrazole-4-carboxamide] |
| < 250 | COc1cc(F)cc(C(=O)N[C@H]2CCn3nc(-c4ccnc(C(F)(F)F)c4)cc32)c1 [Compound I-567a, (S)-3-Fluoro-5-methoxy-N-(2-(2-(trifluoromethyl)pyridin-4-yl)-5,6-dihydro-4H-pyrrolo[1,2-b]pyrazol-4-yl)benzamide] |
| < 250 | O=C(N[C@H]1CCn2nc(-c3ccnc(C(F)(F)F)c3)cc21)c1cc(F)cc(C2CC2)c1 [Compound I-569a, (S)-3-Cyclopropyl-5-fluoro-N-(2-(2-(trifluoromethyl)pyridin-4-yl)-5,6-dihydro-4H-pyrrolo[1,2-b]pyrazol-4-yl)benzamide] |
| < 250 | O=C(N[C@H]1CCn2nc(-c3ccnc(C(F)(F)F)c3)cc21)c1cnc(C(F)(F)F)cn1 [Compound I-571a, (S)-5-(Trifluoromethyl)-N-(2-(2-(trifluoromethyl)pyridin-4-yl)-5,6-dihydro-4H-pyrrolo[1,2-b]pyrazol-4-yl)pyrazine-2-carboxamide] |
| < 250 | O=C(N[C@H]1CCn2nc(-c3ccnc(C(F)(F)F)c3)cc21)c1cnn(C(F)(F)F)c1 [Compound I-573a, (S)-1-(Trifluoromethyl)-N-(2-(2-(trifluoromethyl)pyridin-4-yl)-5,6-dihydro-4H-pyrrolo[1,2-b]pyrazol-4-yl)-1H-pyrazole-4-carboxamide] |
| < 250 | CCOc1cc(F)cc(C(=O)N[C@H]2CCn3nc(-c4cc(OC)ncc4F)cc32)c1 [Compound I-574a, (S)-3-Ethoxy-5-fluoro-N-(2-(5-fluoro-2-methoxypyridin-4-yl)-5,6-dihydro-4H-pyrrolo[1,2-b]pyrazol-4-yl)benzamide] |
| < 250 | COc1cc(-c2cc3n(n2)CC[C@@H]3NC(=O)c2cncc(C(F)(F)F)n2)c(F)cn1 [Compound I-576a, (S)-N-(2-(5-Fluoro-2-methoxypyridin-4-yl)-5,6-dihydro-4H-pyrrolo[1,2-b]pyrazol-4-yl)-6-(trifluoromethyl)pyrazine-2-carboxamide] |
| < 250 | COc1cc(F)cc(C(=O)N[C@H]2CCCn3nc(-c4ccnc(C(F)(F)F)c4)cc32)c1 [Compound I-578a, (S)-3-Fluoro-5-methoxy-N-(2-(2-(trifluoromethyl)pyridin-4-yl)-4,5,6,7-tetrahydropyrazolo[1,5-a]pyridin-4-yl)benzamide] |
| < 250 | CCOc1cc(F)cc(C(=O)N[C@H]2CCCn3nc(-c4ccnc(C(F)(F)F)c4)cc32)c1 [Compound I-579a] |
| < 250 | O=C(N[C@H]1CCCn2nc(-c3ccnc(C(F)(F)F)c3)cc21)c1cnc(C(F)(F)F)cn1 [Compound I-582a, (S)-5-(Trifluoromethyl)-N-(2-(2-(trifluoromethyl)pyridin-4-yl)-4,5,6,7-tetrahydropyrazolo[1,5-a]pyridin-4-yl)pyrazine-2-carboxamide] |
| < 250 | O=C(N[C@H]1CCn2nc(-c3ccnc(C4CC4)c3)cc21)C12CC(CC(F)(F)F)(C1)C2 [Compound I-584a, (S)-N-(2-(2-Cyclopropylpyridin-4-yl)-5,6-dihydro-4H-pyrrolo[1,2-b]pyrazol-4-yl)-3-(2,2,2-trifluoroethyl)bicyclo[1.1.1]pentane-1-carboxamide] |
| < 250 | O=C(N[C@H]1CCn2nc(-c3ccnc(C(F)(F)F)c3)cc21)[C@@H]1C[C@H]1C(F)(F)F [I-488^, (1R,2R)-2-(trifluoromethyl)-N—((S)-2-(2-(trifluoromethyl)pyridin-4-yl)-5,6-dihydro-4H-pyrrolo[1,2-b]pyrazol-4-yl)cyclopropane-1-carboxamide] |

The remaining lines, values behind:

| Compound | IC50 [nM] |
| --- | --- |
| CCOc1cc(F)cc(C(=O)N[C@H]2CCn3nc(-c4ccnc(C(F)(F)F)c4)cc32)c1 [Compound I-568a, (S)-3-Ethoxy-5-fluoro-N-(2-(2-(trifluoromethyl)pyridin-4-yl)-5,6-dihydro-4H-pyrrolo[1,2-b]pyrazol-4-yl)benzamide] | < 250 |
| CC(C)(O)c1cc(F)cc(C(=O)N[C@H]2CCn3nc(-c4ccnc(C(F)(F)F)c4)cc32)c1 [Compound I-570a, (S)-3-Fluoro-5-(2-hydroxypropan-2-yl)-N-(2-(2-(trifluoromethyl)pyridin-4-yl)-5,6-dihydro-4H-pyrrolo[1,2-b]pyrazol-4-yl)benzamide] | < 250 |
| COc1cc(-c2cc3n(n2)CC[C@@H]3NC(=O)c2cnc(C(F)(F)F)cn2)c(F)cn1 [Compound I-575a, (S)-N-(2-(5-Fluoro-2-methoxypyridin-4-yl)-5,6-dihydro-4H-pyrrolo[1,2-b]pyrazol-4-yl)-5-(trifluoromethyl)pyrazine-2-carboxamide] | < 250 |
| COc1cc(-c2cc3n(n2)CC[C@@H]3NC(=O)c2cnn(C(F)(F)F)c2)c(F)cn1 [Compound I-577a, (S)-N-(2-(5-Fluoro-2-methoxypyridin-4-yl)-5,6-dihydro-4H-pyrrolo[1,2-b]pyrazol-4-yl)-1-(trifluoromethyl)-1H-pyrazole-4-carboxamide] | < 250 |
| O=C(N[C@H]1CCCn2nc(-c3ccnc(C(F)(F)F)c3)cc21)c1cc(F)cc(C2CC2)c1 [Compound I-580a, (S)-3-Cyclopropyl-5-fluoro-N-(2-(2-(trifluoromethyl)pyridin-4-yl)-4,5,6,7-tetrahydropyrazolo[1,5-a]pyridin-4-yl)benzamide] | < 250 |
| CC(C)(O)c1cc(F)cc(C(=O)N[C@H]2CCCn3nc(-c4ccnc(C(F)(F)F)c4)cc32)c1 [Compound I-581a] | < 250 |
| O=C(N[C@H]1CCn2nc(-c3ccnc(C(F)(F)F)c3)cc21)C12CC(CC(F)(F)F)(C1)C2 [Compound I-583a, (S)-3-(2,2,2-Trifluoroethyl)-N-(2-(2-(trifluoromethyl)pyridin-4-yl)-5,6-dihydro-4H-pyrrolo[1,2-b]pyrazol-4-yl)bicyclo[1.1.1]pentane-1-carboxamide] | < 250 |
| O=C(N[C@H]1CCn2nc(-c3ccnc(C(F)(F)F)c3)cc21)[C@@H]1C[C@@H]1C(F)(F)F [I-487^, (1R,2S)-2-(trifluoromethyl)-N—((S)-2-(2-(trifluoromethyl)pyridin-4-yl)-5,6-dihydro-4H-pyrrolo[1,2-b]pyrazol-4-yl)cyclopropane-1-carboxamide] | < 250 |
| (S)-3-Chloro-5-methyl-N-(2-(2-(trifluoromethyl)pyridin-4-yl)-2,4,5,6-tetrahydrocyclopenta[c]pyrazol-4-yl)benzamide [Compound I-129a] | < 250 |
| (S)-6-(Trifluoromethyl)-N-(2-(2-(trifluoromethyl)pyridin-4-yl)-5,6-dihydro-4H-pyrrolo[1,2-b]pyrazol-4-yl)pyrazine-2-carboxamide [Compound I-572a] | < 250 |
| (S)—N-(2-(2-Cyclopropyl-5-fluoropyridin-4-yl)-5,6-dihydro-4H-pyrrolo[1,2-b]pyrazol-4-yl)-1-methyl-3-(trifluoromethyl)-1H-pyrazole-5-carboxamide [Compound I-154a] | < 250 |
| (rac)-N-(2-(2-Cyclopropylpyridin-4-yl)-4,5,6,7-tetrahydropyrazolo[1,5-a]pyridin-4-yl)-6-(trifluoromethyl)nicotinamide [Compound I-65] | < 250 |
